Experimental data reported in PMC10993276 (ACS Omega, 2024).

How the values were obtained:
α-glucosidase = α-glucosidase (Saccharomyces cerevisiae, UniProt P53341); test: α-glucosidase inhibition assay; type: biochemical
β-glucosidase = β-glucosidase inhibition assay; type: biochemical; settings: final concentration of 100 μM in every well; pH 6.8, 37 °C

Chain of α-glucosidase (P53341 whole entry): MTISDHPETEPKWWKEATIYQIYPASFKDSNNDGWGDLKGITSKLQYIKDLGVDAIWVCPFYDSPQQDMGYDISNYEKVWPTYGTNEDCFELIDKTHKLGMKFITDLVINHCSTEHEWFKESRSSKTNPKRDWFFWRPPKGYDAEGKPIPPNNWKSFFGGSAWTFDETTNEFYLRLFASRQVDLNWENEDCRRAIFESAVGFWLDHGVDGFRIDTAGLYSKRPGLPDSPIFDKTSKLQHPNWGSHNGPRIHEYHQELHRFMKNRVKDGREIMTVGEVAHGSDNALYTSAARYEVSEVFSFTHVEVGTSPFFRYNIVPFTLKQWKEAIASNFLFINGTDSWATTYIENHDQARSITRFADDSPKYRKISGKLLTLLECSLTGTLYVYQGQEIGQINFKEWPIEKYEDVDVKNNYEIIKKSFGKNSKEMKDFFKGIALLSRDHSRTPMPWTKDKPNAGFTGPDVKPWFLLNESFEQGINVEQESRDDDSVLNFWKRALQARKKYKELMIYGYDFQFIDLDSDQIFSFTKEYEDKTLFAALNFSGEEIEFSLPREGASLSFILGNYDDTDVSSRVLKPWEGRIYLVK

SMILES | IC50 (α-glucosidase) | β-glucosidase % age inhibition (β-glucosidase) | α-glucosidase inhibitory efficacy, folds stronger than acarbose (α-glucosidase; ratio of IC50 values versus acarbose)
COc1cc(C(=O)N=c2scc(-c3ccc(F)cc3)n2-c2ccc(F)c(Cl)c2)cc(OC)c1OC [6a, N-(3-(3-Chloro-4-fluorophenyl)-4-(4-fluorophenyl)thiazol-2(3H)-ylidene)-3,4,5-trimethoxybenzamide] | 18.2 ± 0.02 µM | 11.2% | 
O=C(N=c1scc(-c2ccc(F)cc2)n1-c1ccccc1F)c1ccccc1Cl [6b, 2-Chloro-N-(3-(2-fluorophenyl)-4-(4-fluorophenyl)thiazol-2(3H)-ylidene)benzamide] | 3.23 ± 0.07 µM | 24.2% | 
O=C(N=c1scc(-c2ccc(F)cc2)n1-c1ccccc1F)c1ccccc1F [6c, 2-Fluoro-N-(3-(2-fluorophenyl)-4-(4-fluorophenyl)thiazol-2(3H)-ylidene)benzamide] | 2.98 ± 0.04 µM | 36.3% | 
O=C(N=c1scc(-c2ccc(F)cc2)n1-c1ccccc1F)c1cccc(F)c1 [6d, 3-Fluoro-N-(3-(2-fluorophenyl)-4-(4-fluorophenyl) Thiazol-2(3H)-ylidene)benzamide] | 1.47 ± 0.05 µM | 18.6% | ~24 folds
COc1cc(C(=O)N=c2scc(-c3ccc(F)cc3)n2-c2ccc(F)cc2)cc(OC)c1OC [6e, N-(3,4-Bis(4-fluorophenyl)thiazol-2(3H)-ylidene)-3,4,5-trimethoxybenzamide] | 2.1 ± 0.06 µM | 9.33% | 
O=C(N=c1scc(-c2ccc(F)cc2)n1-c1ccc(F)c(Cl)c1)c1ccc(F)cc1 [6g, N-(3-(3-Chloro-4-fluorophenyl)-4-(4-fluorophenyl)thiazol-2(3H)-ylidene)-4-fluorobenzamide] | 3.16 ± 0.15 µM | 20.1% | 
O=C(N=c1scc(-c2ccc(F)cc2)n1-c1ccc(F)cc1)c1ccccc1Cl [6h, N-(3,4-Bis(4-fluorophenyl) Thiazol-2(3H)-ylidene)-2-chlorobenzamide] | 4.33 ± 0.19 µM | 17.5% | 
COc1cc(C(=O)N=c2scc(-c3ccc(F)cc3)n2-c2cccc(F)c2)cc(OC)c1OC [6i, N-(3-(3-Fluorophenyl)-4-(4-fluorophenyl)thiazol-2(3H)-ylidene)-3,4,5-trimethoxybenzamide] | 8.31 ± 0.13 µM | 15.4% | 
O=C(N=c1scc(-c2ccc(F)cc2)n1-c1ccc(F)c(Cl)c1)c1ccccc1F [6j, N-(3-(3-Chloro-4-fluorophenyl)-4-(4-fluorophenyl)thiazol-2(3H)-ylidene)-2-fluorobenzamide] | 12.5 ± 0.22 µM | 12.8% | 
C[C@H]1O[C@H](O[C@H]2[C@H](O)[C@@H](O)[C@@H](O[C@H]3[C@H](O)[C@@H](O)C(O)O[C@@H]3CO)O[C@@H]2CO)[C@H](O)[C@@H](O)[C@@H]1N[C@H]1C=C(CO)[C@@H](O)[C@H](O)[C@H]1O (some centres unmarked) [acarbose, reference compound] |  | 63.7% | 
